Columns and labels:
[1] = human, in vivo, po; cited from earlier work
[2] = pre-clinical; see U.S. Pat. No. 7,101,916; cited from earlier work
[3] = system: Major Depressive Disorder (MDD) subjects; assay type: in vivo, human
Description: More recently, dexmecamylamine was evaluated as adjunctive therapy in the treatment of major depressive disorder (MDD) in a large international Phase 3 depression program. […] More than 2400 subjects have received dexmecamylamine in double-blind or open-label studies.
No safety studies using dexmecamylamine have been performed in OAB. Phase 2 and Phase 3 clinical studies using dexmecamylamine in Major Depressive Disorder (MDD) have been conducted and completed. […] Briefly, in the fixed dose Phase 3 studies in MDD, at doses of 2 mg BID (the maximum doses to be studied in the OAB study), the most frequent treatment emergent adverse events that were reported more than 2% more commonly in the dexmecamylamine group compared to placebo group were: constipation (15.2% dexmecamylamine vs. 3.8% placebo): and dry mouth (7.0% dexmecamylamine vs. 1.3% placebo).

sympathetic activities = assay: Dose-responses for inhibition of sympathetic activities at low and high firing frequency (FIG. 2); details: 1 Hz versus 10 Hz firing frequency
Description: This is believed due, in part, to the fact that TC-5214 potency will increase with frequency due to its slow off-rate kinetics. See FIG. 2, which illustrates a 10-fold shift to the left with increasing frequency. The effective dose range, therefore, is believed to be between 0.1 and 1 mg; with a top dose at 2 mg once per day, since sympathetic activity decreases at night in primary hyperhidrosis. […] The potency of TC-5214 shifts to the left (red/triangle curve) thereby reducing sweating due to overactive sympathetic but remain too low to induce inhibition of the parasympathetic and associated side effects, including urinary retention and constipation.

[4] = system: subjects with overactive bladder; assay type: in vivo, human
Description: Dexmecamylamine is a use-dependent potent inhibitor of the α3 nicotinic receptor subtype (e.g., α3β2 and α3β4). Such receptors are expressed in the urothelium and regulate bladder smooth muscle contraction. (Beckel et al., Expression of functional nicotinic acetylcholine receptors in rat urinary bladder epithelial cells, Am. J. Physiol. Renal Physiol. 290:F103-110, 2006). A clinical study was performed to evaluate the safety, tolerability, and efficacy of dexmecamylamine (TC-5214) for the treatment of Overactive Bladder (OAB). The study included a three- or five-week screening period, followed by a 12-week treatment period during which patients received either one of three doses of dexmecamylamine or placebo twice daily, randomized in a ratio of 2:1:1:1 (placebo, low dose, mid dose, high dose), with a two-week follow-up period. A total of 768 subjects with overactive bladder were randomized into the double-blind treatment period of the study. On Jul. 28, 2014, Targacept announced top-line results from the Phase 2b clinical trial of TC-5214 as a treatment for overactive bladder (OAB). […] See also, PCT Application No. […], which published as WO 2013/142162 A1.
As noted hereinabove, a clinical study was performed to evaluate the safety, tolerability, and efficacy of dexmecamylamine (TC-5214) for the treatment of Overactive Bladder (OAB). The study included a three- or five-week screening period, followed by a 12-week treatment period during which patients received either one of three doses of dexmecamylamine or placebo twice daily, randomized in a ratio of 2:1:1:1 (placebo, low dose, mid dose, high dose), with a two-week follow-up period. A total of 768 subjects with overactive bladder were randomized into the double-blind treatment period of the study. […] See also, PCT Application No. PCT/US2013/030640, which published as WO 2013/142162 A1.

[5] = Excretion of dexmecamylamine in urine; details: in vivo
Excerpt: The exposure differential results in the ability of dexmecamylamine to target local nicotinic receptors in the urothelium that affect bladder contraction frequency while limiting systemic side effects. Consequently, the potential for dexmecamylamine to treat OAB through its action on nAChRs in the bladder urothelium warrants further investigation.

| placebo corrected rate of constipation ([4]; human, in vivo, 12 weeks) [%] | rate of urinary tract infection (placebo corrected) ([4]; human, in vivo, 12 weeks) [%] | SMILES | absorption from the gastrointestinal tract [1] | safety profile versus mecamylamine and its R-isomer [2] | efficacy in the treatment of depression ([3]; adjunctive therapy, Phase 3 depression program) | safety and tolerability ([3]; human, in vivo) | vital signs, blood or urine laboratory measurements, ECG conduction intervals, suicidality ([3]; human, in vivo) | shift of potency (dose-response to the left) with increasing frequency (sympathetic activities) [fold] | micturition frequency per 24 hours (co-primary endpoint) ([4]; high dose, twice daily, after 12 weeks of treatment, p=0.033) | episodes of urinary incontinence per 24 hours (co-primary endpoint) ([4]; high dose, twice daily, after 12 weeks of treatment, p=0.379) | safety and tolerability ([4]; human, in vivo) | excretion in the urine [5] |
| --- | --- | --- | --- | --- | --- | --- | --- | --- | --- | --- | --- | --- |
| – | – | CNC1(C)C2CCC(C2)C1(C)C.Cl (racemic) [mecamylamine, N,2,3,3-tetramethylbicyclo[2.2.1]heptan-2-amine hydrochloride] | nearly complete absorption | – | – | – | – | – | – | – | – | – |
| 15.1 | 5.9 | CNC1(C)[C@H]2CCC(C2)C1(C)C (stereo in doubt) [TC-5214, (S)-N,2,3,3-tetramethylnorbornan-2-amine] | – | superior safety profile | failed to demonstrate efficacy | generally safe and well-tolerated | no noteworthy differences | 10 | statistically significant reduction | improvement that did not reach statistical significance | generally safe and well tolerated | excreted almost entirely unchanged in the urine |
